Measurements: PubChem BioAssay AID248 (DTP/NCI, 2004)
Values joined by “and” are separate entries in the source; they are usually repeats but may differ in a detail not shown here. Identical values can stand only once. Inconclusive results and toxic doses are left out. Cut-off read from the data, not from the text of the source: active = T/C of 150% or more; inactive = T/C below 125%.

System: L1210 leukemia ip in BDF1 mice, survival T/C
Assay: NCI In Vivo Anticancer Drug Screen. Data for tumor model L1210 Leukemia (intraperitoneal) in B6D2F1 (BDF1) mice
Conditions: endpoint: mean survival time, higher = longer survival
Summary of the method: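 Tumor cells were implanted, animals were treated, and survival was followed. The result divides the treated measurement by the vehicle-control measurement.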

[1] = dose: 100.0 mg/kg/injection, schedule: Q01DX001 (ip), vehicle: carboxymethylcellulose (CMC)
[2] = dose: 200.0 mg/kg/injection, schedule: Q01DX001 (ip), vehicle: carboxymethylcellulose (CMC)
[3] = dose: 400.0 mg/kg/injection, schedule: Q01DX001 (ip), vehicle: carboxymethylcellulose (CMC)
[4] = dose: 100.0 mg/kg/injection, schedule: Q01DX009 (ip), vehicle: saline with Tween-80
[5] = dose: 100.0 mg/kg/injection, schedule: Q01DX009 (ip), vehicle: Klucel (hydroxypropylcellulose) (HPC)
[6] = dose: 200.0 mg/kg/injection, schedule: Q01DX009 (ip), vehicle: Klucel (hydroxypropylcellulose) (HPC)
[7] = dose: 400.0 mg/kg/injection, schedule: Q01DX009 (ip), vehicle: Klucel (hydroxypropylcellulose) (HPC)
[8] = dose: 100.0 mg/kg/injection, schedule: Q01DX001 (ip), vehicle: saline
[9] = dose: 200.0 mg/kg/injection, schedule: Q01DX001 (ip), vehicle: saline
[10] = dose: 400.0 mg/kg/injection, schedule: Q01DX001 (ip), vehicle: saline

Measured: T/C

C/C(=N/NC(=O)c1ccccc1)c1ccc(Cl)cc1Cl
inactive: dose: 100.0 mg/kg/injection, schedule: Q04DX003 (ip), vehicle: other 97 % of control | dose: 200.0 mg/kg/injection, schedule: Q04DX003 (ip), vehicle: other 108 % of control

CC1(C)C/C(=C\c2cccc(Cl)c2)C(=O)c2ccccc21
inactive: dose: 100.0 mg/kg/injection, schedule: Q04DX003 (ip), vehicle: Klucel (hydroxypropylcellulose) (HPC) 108 % of control | dose: 200.0 mg/kg/injection, schedule: Q04DX003 (ip), vehicle: Klucel (hydroxypropylcellulose) (HPC) 106 % of control | dose: 400.0 mg/kg/injection, schedule: Q04DX003 (ip), vehicle: Klucel (hydroxypropylcellulose) (HPC) 110 % of control

CCCNC(=O)NCCN(CC)c1ccccc1
inactive: [1] 97 % of control | dose: 100.0 mg/kg/injection, schedule: Q01DX009 (ip), vehicle: carboxymethylcellulose (CMC) 93 % of control and 101 % of control | dose: 100.0 mg/kg/injection, schedule: Q04DX002 (ip), vehicle: carboxymethylcellulose (CMC) 94 % of control and 97 % of control | dose: 100.0 mg/kg/injection, schedule: Q04DX003 (ip), vehicle: carboxymethylcellulose (CMC) 100 % of control | [2] 96 % of control | dose: 200.0 mg/kg/injection, schedule: Q01DX009 (ip), vehicle: carboxymethylcellulose (CMC) 104 % of control and 87 % of control | dose: 200.0 mg/kg/injection, schedule: Q04DX002 (ip), vehicle: carboxymethylcellulose (CMC) 105 % of control and 87 % of control | dose: 200.0 mg/kg/injection, schedule: Q04DX003 (ip), vehicle: carboxymethylcellulose (CMC) 109 % of control | [3] 96 % of control | dose: 400.0 mg/kg/injection, schedule: Q01DX009 (ip), vehicle: carboxymethylcellulose (CMC) 93 % of control and 103 % of control | dose: 400.0 mg/kg/injection, schedule: Q04DX002 (ip), vehicle: carboxymethylcellulose (CMC) 93 % of control and 97 % of control | dose: 400.0 mg/kg/injection, schedule: Q04DX003 (ip), vehicle: carboxymethylcellulose (CMC) 102 % of control

NC(=O)C1CCNCC1
inactive: dose: 100.0 mg/kg/injection, schedule: Q04DX002 (ip), vehicle: saline 108 % of control | dose: 200.0 mg/kg/injection, schedule: Q04DX002 (ip), vehicle: saline 102 % of control | dose: 400.0 mg/kg/injection, schedule: Q04DX002 (ip), vehicle: saline 115 % of control

O=C(Nc1c(Br)cc2c(c1Br)Cc1cc(Br)ccc1-2)C(Cl)Cl
inactive: [1] 98 % of control | [2] 91 % of control | [3] 98 % of control

COc1cccc(C)c1NC1=NCCO1
inactive: dose: 1.56 mg/kg/injection, schedule: Q01DX009 (ip), vehicle: saline with Tween-80 97 % of control | dose: 1.56 mg/kg/injection, schedule: Q04DX003 (ip), vehicle: saline with Tween-80 97 % of control | dose: 3.13 mg/kg/injection, schedule: Q01DX009 (ip), vehicle: saline with Tween-80 116 % of control | dose: 3.13 mg/kg/injection, schedule: Q04DX003 (ip), vehicle: saline with Tween-80 100 % of control | dose: 6.25 mg/kg/injection, schedule: Q01DX009 (ip), vehicle: saline with Tween-80 101 % of control | dose: 6.25 mg/kg/injection, schedule: Q04DX003 (ip), vehicle: saline with Tween-80 100 % of control and 101 % of control | dose: 25.0 mg/kg/injection, schedule: Q04DX003 (ip), vehicle: saline with Tween-80 96 % of control

Nc1c(Br)cc2c(c1Br)Cc1cc([N+](=O)[O-])ccc1-2
inactive: dose: 100.0 mg/kg/injection, schedule: Q04DX003 (ip), vehicle: saline with Tween-80 104 % of control | dose: 200.0 mg/kg/injection, schedule: Q04DX003 (ip), vehicle: saline with Tween-80 103 % of control | dose: 400.0 mg/kg/injection, schedule: Q04DX003 (ip), vehicle: saline with Tween-80 98 % of control

Cc1ccc(C)c(N2C(=O)C(=O)N(c3cc(C)ccc3C)P2(=O)N(CCCl)CCCl)c1
inactive: dose: 18.0 mg/kg/injection, schedule: Q01DX Z (ip), vehicle: carboxymethylcellulose (CMC) 101 % of control | dose: 36.0 mg/kg/injection, schedule: Q01DX Z (ip), vehicle: carboxymethylcellulose (CMC) 90 % of control | dose: 72.0 mg/kg/injection, schedule: Q01DX Z (ip), vehicle: carboxymethylcellulose (CMC) 93 % of control | dose: 145.0 mg/kg/injection, schedule: Q01DX Z (ip), vehicle: carboxymethylcellulose (CMC) 96 % of control

Cc1ccc(NC(N)=S)cc1C
inactive: dose: 25.0 mg/kg/injection, schedule: Q01DX009 (ip), vehicle: saline with Tween-80 105 % of control | dose: 50.0 mg/kg/injection, schedule: Q01DX009 (ip), vehicle: saline with Tween-80 90 % of control | [4] 86 % of control

CCOC(=O)C1=NNC(C(C)=O)(C(=O)OCC)C1CC (centres undefined)
inactive: [5] 102 % of control | [6] 95 % of control | [7] 96 % of control

O=C(CNC(=O)Nc1nccs1)N/N=C/c1cccc([N+](=O)[O-])c1
inactive: [5] 97 % of control | [6] 100 % of control and 90 % of control | [7] 97 % of control

[N-]=[N+]=NC(=O)C1C2CC3C(C2)C31 (centres undefined)
inactive: [1] 95 % of control | [2] 88 % of control

CC(C)(C)OC(=O)NCCCCC(NC(=O)OCc1ccccc1)C(=O)Oc1ccc([N+](=O)[O-])cc1 (centres undefined)
inactive: [4] 88 % of control | dose: 200.0 mg/kg/injection, schedule: Q01DX009 (ip), vehicle: saline with Tween-80 93 % of control

COc1ccc(C(=O)/C=C\c2ccc(OC)cc2O)cc1
inactive: dose: 50.0 mg/kg/injection, schedule: Q01DX001 (ip), vehicle: saline 100 % of control | [8] 103 % of control | [9] 97 % of control | [10] 103 % of control

O=C(Nc1ccccc1)N1CCN=C1C1CCCc2ccccc21 (centres undefined)
inactive: dose: 100.0 mg/kg/injection, schedule: Q04DX002 (ip), vehicle: saline with Tween-80 89 % of control | dose: 200.0 mg/kg/injection, schedule: Q04DX002 (ip), vehicle: saline with Tween-80 89 % of control | dose: 400.0 mg/kg/injection, schedule: Q04DX002 (ip), vehicle: saline with Tween-80 86 % of control

Oc1ccccc1C=Nc1cc(Cl)ccc1O
inactive: [8] 97 % of control | [9] 95 % of control | [10] 103 % of control

Cn1nc(N)c2nccnc21
inactive: dose: 50.0 mg/kg/injection, schedule: Q01DX009 (ip), vehicle: saline 98 % of control | dose: 100.0 mg/kg/injection, schedule: Q01DX009 (ip), vehicle: saline 104 % of control | dose: 100.0 mg/kg/injection, schedule: Q04DX003 (ip), vehicle: alcohol 100 % of control | dose: 200.0 mg/kg/injection, schedule: Q04DX003 (ip), vehicle: alcohol 98 % of control

CCc1oc2cc([N+](=O)[O-])ccc2c1C(OC(C)=O)OC(C)=O
inactive: [5] 100 % of control | [6] 105 % of control | [7] 96 % of control

S=c1nc[nH]c2n[nH]nc12
inactive: dose: 12.5 mg/kg/injection, schedule: Q01DX001 (ip), vehicle: saline with Tween-80 104 % of control | dose: 25.0 mg/kg/injection, schedule: Q01DX001 (ip), vehicle: saline with Tween-80 103 % of control | dose: 50.0 mg/kg/injection, schedule: Q01DX001 (ip), vehicle: saline with Tween-80 98 % of control | dose: 100.0 mg/kg/injection, schedule: Q01DX001 (ip), vehicle: saline with Tween-80 98 % of control | dose: 200.0 mg/kg/injection, schedule: Q01DX001 (ip), vehicle: saline with Tween-80 101 % of control | dose: 400.0 mg/kg/injection, schedule: Q01DX001 (ip), vehicle: saline with Tween-80 103 % of control

CC(=O)NCCCCCC(=O)Nc1ccc(Cl)c(Cl)c1
inactive: [1] 94 % of control | [2] 92 % of control | [3] 92 % of control

O=C(Nc1ccccc1C(F)(F)F)N(CC(O)c1ccccc1)C1CCCCC1 (centres undefined)
inactive: [5] 106 % of control | [6] 95 % of control | [7] 100 % of control
